Reference: PubChem BioAssay AID1919004 (Molecular Pharmacology Branch, DTP, NCI, 2023)

Tested on: 883617-216-R-J1-PDC complex spheroids, growth, % test/control
Assay: Anticancer human tumor 883617-216-R-J1-PDC patient-derived bladder carcinoma cell line growth inhibition [AhR]
Conditions: for IC50: curve of first compound; for viability, T/C: stronger effect = lower value
In short: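 Agents were dosed in half-log steps down from roughly clinical Cmax, or from 10 microM where Cmax was unknown, alone and with AhR antagonists. Read-out: percent test/control growth of tumor spheroids containing HUVEC and MSC stromal cells.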

[1] = second compound 0.1 µM, first compound 0.0316 µM
[2] = second compound 0.1 µM, first compound 0.1 µM
[3] = second compound 0.1 µM, first compound 0.316 µM
[4] = second compound 0.1 µM, first compound 1 µM
[5] = second compound 0.1 µM, first compound 3.16 µM
[6] = second compound 0.1 µM, first compound 10 µM
[7] = second compound 0.316 µM, first compound 0.0316 µM
[8] = second compound 0.316 µM, first compound 0.1 µM
[9] = second compound 0.316 µM, first compound 0.316 µM
[10] = second compound 0.316 µM, first compound 1 µM
[11] = second compound 0.316 µM, first compound 3.16 µM
[12] = second compound 0.316 µM, first compound 10 µM
[13] = second compound 1 µM, first compound 0.0316 µM
[14] = second compound 1 µM, first compound 0.1 µM
[15] = second compound 1 µM, first compound 0.316 µM
[16] = second compound 1 µM, first compound 1 µM
[17] = second compound 1 µM, first compound 3.16 µM
[18] = second compound 1 µM, first compound 10 µM
[19] = second compound 3.16 µM, first compound 0.0316 µM
[20] = second compound 3.16 µM, first compound 0.1 µM
[21] = second compound 3.16 µM, first compound 0.316 µM
[22] = second compound 3.16 µM, first compound 1 µM
[23] = second compound 3.16 µM, first compound 3.16 µM
[24] = second compound 3.16 µM, first compound 10 µM
[25] = second compound 10 µM, first compound 0.0316 µM
[26] = second compound 10 µM, first compound 0.1 µM
[27] = second compound 10 µM, first compound 0.316 µM
[28] = second compound 10 µM, first compound 1 µM
[29] = second compound 10 µM, first compound 3.16 µM
[30] = second compound 10 µM, first compound 10 µM
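Further: exposure lasted 7 days after dosing on day 3 of spheroid growth.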

## COc1cc(Nc2ncc3c(n2)-c2ccc(Cl)cc2C(c2c(F)cccc2OC)=NC3)ccc1C(=O)O + Cc1ccccc1N=Nc1ccc(NC(=O)c2ccnn2C)c(C)c1
Second compound 0.1 µM
  IC50: > 10 µM
Second compound 0.316 µM
  IC50: > 10 µM
Second compound 1 µM
  IC50: > 10 µM
Second compound 3.16 µM
  IC50: > 10 µM
Second compound 10 µM
  IC50: > 10 µM
[1]
  viability, T/C: 83.3%
[2]
  viability, T/C: 78.7%
[3]
  viability, T/C: 74.5%
[4]
  viability, T/C: 63.2%
[5]
  viability, T/C: 71.1%
[6]
  viability, T/C: 63.6%
[7]
  viability, T/C: 72.7%
[8]
  viability, T/C: 83.1%
[9]
  viability, T/C: 64.6%
[10]
  viability, T/C: 62.6%
[11]
  viability, T/C: 66.3%
[12]
  viability, T/C: 63.2%
[13]
  viability, T/C: 73.9%
[14]
  viability, T/C: 73.7%
[15]
  viability, T/C: 67.2%
[16]
  viability, T/C: 72%
[17]
  viability, T/C: 63.7%
[18]
  viability, T/C: 53.7%
[19]
  viability, T/C: 67.4%
[20]
  viability, T/C: 76.3%
[21]
  viability, T/C: 69.6%
[22]
  viability, T/C: 62.1%
[23]
  viability, T/C: 67%
[24]
  viability, T/C: 56.4%
[25]
  viability, T/C: 68.9%
[26]
  viability, T/C: 67.7%
[27]
  viability, T/C: 67.8%
[28]
  viability, T/C: 61.3%
[29]
  viability, T/C: 58.7%
[30]
  viability, T/C: 50.8%

## COc1cc(C2c3cc4c(cc3C(OC3OC5COC(C)OC5C(O)C3O)C3COC(=O)C23)OCO4)cc(OC)c1O (stereo not given) + CC(CO)NC(=O)c1cc(-c2ccc(Cl)cc2)nn(-c2cnn(C)c2)c1=O
Second compound 0.1 µM
  IC50: > 10 µM
Second compound 0.316 µM
  IC50: > 10 µM
Second compound 1 µM
  IC50: > 10 µM
Second compound 3.16 µM
  IC50: > 10 µM
Second compound 10 µM
  IC50: > 10 µM
[1]
  viability, T/C: 75.2%
[2]
  viability, T/C: 90.2%
[3]
  viability, T/C: 108%
[4]
  viability, T/C: 66.3%
[5]
  viability, T/C: 84.1%
[6]
  viability, T/C: 60.1%
[7]
  viability, T/C: 63.8%
[8]
  viability, T/C: 84.5%
[9]
  viability, T/C: 85.3%
[10]
  viability, T/C: 67.7%
[11]
  viability, T/C: 101%
[12]
  viability, T/C: 69.4%
[13]
  viability, T/C: 60.3%
[14]
  viability, T/C: 76.7%
[15]
  viability, T/C: 90%
[16]
  viability, T/C: 83.5%
[17]
  viability, T/C: 84.3%
[18]
  viability, T/C: 53.3%
[19]
  viability, T/C: 81.1%
[20]
  viability, T/C: 85.8%
[21]
  viability, T/C: 74.3%
[22]
  viability, T/C: 69.3%
[23]
  viability, T/C: 65%
[24]
  viability, T/C: 102%
[25]
  viability, T/C: 91.7%
[26]
  viability, T/C: 70.8%
[27]
  viability, T/C: 89.6%
[28]
  viability, T/C: 81.3%
[29]
  viability, T/C: 53.5%
[30]
  viability, T/C: 77.3%

## CC[C@@]1(O)C(=O)OCc2c1cc1n(c2=O)Cc2cc3c(CN(C)C)c(O)ccc3nc2-1 + Cc1ccccc1N=Nc1ccc(NC(=O)c2ccnn2C)c(C)c1
Second compound 0.1 µM
  IC50: > 0.1 µM
Second compound 0.316 µM
  IC50: > 0.1 µM
Second compound 1 µM
  IC50: > 0.1 µM
Second compound 3.16 µM
  IC50: > 0.1 µM
Second compound 10 µM
  IC50: > 0.1 µM
Second compound 0.1 µM, first compound 0.000316 µM
  viability, T/C: 90.7%
Second compound 0.1 µM, first compound 0.001 µM
  viability, T/C: 85%
Second compound 0.1 µM, first compound 0.00316 µM
  viability, T/C: 86.3%
Second compound 0.1 µM, first compound 0.01 µM
  viability, T/C: 80.3%
[1]
  viability, T/C: 76.9%
[2]
  viability, T/C: 71.1%
Second compound 0.316 µM, first compound 0.000316 µM
  viability, T/C: 86.8%
Second compound 0.316 µM, first compound 0.001 µM
  viability, T/C: 86.6%
Second compound 0.316 µM, first compound 0.00316 µM
  viability, T/C: 76.2%
Second compound 0.316 µM, first compound 0.01 µM
  viability, T/C: 73%
[7]
  viability, T/C: 70%
[8]
  viability, T/C: 62%
Second compound 1 µM, first compound 0.000316 µM
  viability, T/C: 82.5%
Second compound 1 µM, first compound 0.001 µM
  viability, T/C: 80.3%
Second compound 1 µM, first compound 0.00316 µM
  viability, T/C: 79.4%
Second compound 1 µM, first compound 0.01 µM
  viability, T/C: 71.4%
[13]
  viability, T/C: 66%
[14]
  viability, T/C: 69.6%
Second compound 3.16 µM, first compound 0.000316 µM
  viability, T/C: 70%
Second compound 3.16 µM, first compound 0.001 µM
  viability, T/C: 79.1%
Second compound 3.16 µM, first compound 0.00316 µM
  viability, T/C: 78.6%
Second compound 3.16 µM, first compound 0.01 µM
  viability, T/C: 74.7%
[19]
  viability, T/C: 70.7%
[20]
  viability, T/C: 71.3%
Second compound 10 µM, first compound 0.000316 µM
  viability, T/C: 74.2%
Second compound 10 µM, first compound 0.001 µM
  viability, T/C: 80.7%
Second compound 10 µM, first compound 0.00316 µM
  viability, T/C: 78%
Second compound 10 µM, first compound 0.01 µM
  viability, T/C: 70.9%
[25]
  viability, T/C: 75.6%
[26]
  viability, T/C: 73%

## O=C(c1cc(Cc2n[nH]c(=O)c3ccccc23)ccc1F)N1CCN(C(=O)C2CC2)CC1 + Cc1ccccc1N=Nc1ccc(NC(=O)c2ccnn2C)c(C)c1
Second compound 0.1 µM
  IC50: > 10 µM
Second compound 0.316 µM
  IC50: > 10 µM
Second compound 1 µM
  IC50: > 10 µM
Second compound 3.16 µM
  IC50: > 10 µM
Second compound 10 µM
  IC50: > 10 µM
[1]
  viability, T/C: 88.7%
[2]
  viability, T/C: 90.9%
[3]
  viability, T/C: 98.7%
[4]
  viability, T/C: 84.3%
[5]
  viability, T/C: 84.1%
[6]
  viability, T/C: 81%
[7]
  viability, T/C: 84.7%
[8]
  viability, T/C: 82.1%
[9]
  viability, T/C: 76.5%
[10]
  viability, T/C: 86.5%
[11]
  viability, T/C: 74.8%
[12]
  viability, T/C: 85.4%
[13]
  viability, T/C: 89%
[14]
  viability, T/C: 83.2%
[15]
  viability, T/C: 87.2%
[16]
  viability, T/C: 80.7%
[17]
  viability, T/C: 80.7%
[18]
  viability, T/C: 71%
[19]
  viability, T/C: 82.8%
[20]
  viability, T/C: 85.6%
[21]
  viability, T/C: 86.8%
[22]
  viability, T/C: 75.2%
[23]
  viability, T/C: 71.3%
[24]
  viability, T/C: 73.9%
[25]
  viability, T/C: 82.3%
[26]
  viability, T/C: 76.8%
[27]
  viability, T/C: 78.9%
[28]
  viability, T/C: 70.6%
[29]
  viability, T/C: 65.9%
[30]
  viability, T/C: 64.4%

## CC(C)CC(NC(=O)C(Cc1ccccc1)NC(=O)c1cnccn1)B(O)O (stereo not given) + CC(CO)NC(=O)c1cc(-c2ccc(Cl)cc2)nn(-c2cnn(C)c2)c1=O
Second compound 0.1 µM
  IC50: 0.00186 µM
Second compound 0.316 µM
  IC50: 0.0022 µM
Second compound 1 µM
  IC50: 0.00221 µM
Second compound 3.16 µM
  IC50: 0.00159 µM
Second compound 10 µM
  IC50: 0.00199 µM
Second compound 0.1 µM, first compound 0.000949 µM
  viability, T/C: 106%
Second compound 0.1 µM, first compound 0.003 µM
  viability, T/C: 10.4%
Second compound 0.1 µM, first compound 0.00949 µM
  viability, T/C: 2.11%
Second compound 0.1 µM, first compound 0.03 µM
  viability, T/C: 2.02%
Second compound 0.1 µM, first compound 0.0949 µM
  viability, T/C: 1.92%
Second compound 0.1 µM, first compound 0.3 µM
  viability, T/C: 3.28%
Second compound 0.316 µM, first compound 0.000949 µM
  viability, T/C: 123%
Second compound 0.316 µM, first compound 0.003 µM
  viability, T/C: 22.9%
Second compound 0.316 µM, first compound 0.00949 µM
  viability, T/C: 2.66%
Second compound 0.316 µM, first compound 0.03 µM
  viability, T/C: 3.45%
Second compound 0.316 µM, first compound 0.0949 µM
  viability, T/C: 3.14%
Second compound 0.316 µM, first compound 0.3 µM
  viability, T/C: 2.44%
Second compound 1 µM, first compound 0.000949 µM
  viability, T/C: 123%
Second compound 1 µM, first compound 0.003 µM
  viability, T/C: 23.5%
Second compound 1 µM, first compound 0.00949 µM
  viability, T/C: 1.76%
Second compound 1 µM, first compound 0.03 µM
  viability, T/C: 2.42%
Second compound 1 µM, first compound 0.0949 µM
  viability, T/C: 1.86%
Second compound 1 µM, first compound 0.3 µM
  viability, T/C: 3.98%
Second compound 3.16 µM, first compound 0.000949 µM
  viability, T/C: 80.2%
Second compound 3.16 µM, first compound 0.003 µM
  viability, T/C: 13.3%
Second compound 3.16 µM, first compound 0.00949 µM
  viability, T/C: 3.01%
Second compound 3.16 µM, first compound 0.03 µM
  viability, T/C: 2.25%
Second compound 3.16 µM, first compound 0.0949 µM
  viability, T/C: 2.47%
Second compound 3.16 µM, first compound 0.3 µM
  viability, T/C: 1.67%
Second compound 10 µM, first compound 0.000949 µM
  viability, T/C: 122%
Second compound 10 µM, first compound 0.003 µM
  viability, T/C: 10.3%
Second compound 10 µM, first compound 0.00949 µM
  viability, T/C: 1.69%
Second compound 10 µM, first compound 0.03 µM
  viability, T/C: 2.43%
Second compound 10 µM, first compound 0.0949 µM
  viability, T/C: 2.25%
Second compound 10 µM, first compound 0.3 µM
  viability, T/C: 1.87%
